{"source": "paper PMC4965013", "about": "“Open Source Drug Discovery with the Malaria Box Compound Collection for Neglected Diseases and Beyond” (PLoS Pathogens, 2016)", "key": {"[1]": {"system": "Onchocerca lienalis microfilariae", "assay": "Onchocerca lienalis microfilariae motility", "format": "cell-based", "conditions": "12.5µM", "protocol": "Column DW: Townson group (data presented first in this paper). Screening of Onchocerca lienalis microfilariae for motility inhibition in microplates. Methods: Microfilariae are obtained from samples of peri-umbilical skin of freshly slaughtered, naturally infected cattle in the UK. […] The results are then calculated as motility index scores and expressed as a percentage of the maximum obtainable. […] Merial) were immotile at the end of the trial."}, "wild type yeast cells": {"system": "wild type yeast cells", "assay": "WT yeast (PMT assay control)", "conditions": "Saccharomyces cerevisiae"}, "P. falciparum 3D7 or K1": {"system": "P. falciparum 3D7 or K1", "assay": "Asexual Blood Stage Imaging Assay (DAPI) V. Avery", "format": "cell-based", "conditions": "Plasmodium falciparum; 5µM; read-out: P. falciparum 3D7 asexual blood stage % inhibition (Image)"}, "[2]": {"system": "Mycobacterium marinum in Acanthamoeba castellanii", "assay": "A. castellanii-M. marinum infection assay", "format": "cell-based", "conditions": "10µM", "protocol": "Columns FA-FC: Soldati Group (data presented first in this paper). M. marinum, D. discoideum, and Acathamoeba castellani assays. Each compound of the Malaria Box has been assayed at 10 µM in all three assays. First, the antibiotic activity was assayed directly against Mycobacterium marinum in its culture medium. Second, the toxicity and growth inhibitory effect of the compounds was assayed against the amoeba Dictyostelium discoideum in its culture medium. Finally, the “in cellulo” anti-infective activity of each compound was tested using the intracellular infection system Acanthamoeba castellanii-M. marinum. Values have been normalized using the DMSO carrier. For each assay, values have been normalized to 1.00 using the DMSO carrier, which has no detectable effect on D. discoideum nor M. marinum growth, while rifabutin was used as positive control for the antibiotic assay and the infection assay, as it abolishes M. marinum growth (normalized value under 0.10) in broth at 10 µM and intracellularly at 30 µM [150]."}, "[3]": {"system": "P. falciparum NF54 gametocytes", "design": "method as in ref [72] (a number printed in a supplementary file, which may have a reference list of its own: not looked up in the article's list)", "conditions": "10µM; ref [72]; cited from earlier work"}, "S. mansoni adult worms": {"system": "S. mansoni adult worms", "assay": "S. mansoni adult worms LSHTM Bickle", "format": "cell-based, Schistosoma mansoni", "conditions": "15 μM", "protocol": "Columns DI-DJ, DL: Bickle group. (columns DI and DL data presented first in this paper, column DJ partially published in ref [95].). […] Male CD1 mice (aged 5–6 weeks) were bred on site using SPF conditions with access of food and water ab libitum. Worms were obtained by portal perfusion of CD1 mice (Charles River, UK) 6 weeks post-infection and 3 worm pairs added to the wells of 48 well plates (Nunc, UK) in 1 ml complete DMEM medium supplemented with 10% fetal calf serum (Gibco, UK), 2 mM L-glutamine, 100 U/ml penicillin, 100 µg/ml streptomycin (cDMEM). A primary adult worm screen was performed in which 400 MMV compounds were tested at 15 µM in 0.15% DMSO. Negative controls contained worms cultured in cDMEM alone and in cDMEM with 0.15% DMSO. Positive control wells contained worms cultured in Praziquantel (Sigma-Aldrich, UK) at 10 µM. Cultures were incubated at 37 °C and 5% CO2. Effects were assessed on day 5 of culture using an inverted microscope (Leitz Diavert Wetzlar, Germany). Any compounds producing complete immobility or ≥ 70% worm motility inhibition plus severe morphological damage were considered hits in the primary screen. […] IC50 for the compounds was calculated using Microsoft XLfit version 5.1.0.0 (2006-2008 ID Business Solutions Ltd). In vitro screening of S. mansoni schistosomula run at LSHTM (London): Schistosomula were prepared as previously reported with the modification of using a 45% and 70% Percoll gradient and the cercarial heads recovered from the 70% layer. All centrifugation steps were done at 350 xg. An appropriate volume of drug Stock was pre-added to wells in 96-well microtiter culture plates (Nunc, UK) containing 100 µl complete M169 (cM169). The wells were then topped up with another 100 µl of cM169 containing 100 schistosomula to give final concentrations of 15 µM of compound per well. Negative controls contained larvae cultured in cM169 alone and in cM169 with 0.5% DMSO. Positive control wells contained schistosomula cultured in Praziquantel (Sigma-Aldrich, UK) at 10 µM. Cultures were incubated at 37 °C and 5% CO2. Effects were assessed on day 3 of culture using an inverted microscope (Leitz Diavert Wetzlar, Germany). Any compounds producing complete immobility or ≥ 70% motility inhibition plus severe morphological damage were considered hits in the larval screen."}, "[4]": {"system": "MRC5SV2 human fibroblasts", "conditions": "read-out: MRC-5-Human-Fibroblasts EC50 (32000 >32µM); ref [84]; cited from earlier work"}, "[5]": {"system": "Schistosoma mansoni schistosomula (somules)", "assay": "S. mansoni somules phenotypic screen Caffrey"}, "[6]": {"conditions": "read-out: % Inhibition in WT yeast (PMT assay control), no added choline"}, "[7]": {"conditions": "read-out: % Inhibition in WT yeast (PMT assay control), with added choline"}}, "note": "Where two headings read alike, the source gives them in different places.", "data": [{"smiles": "CCN1CCN(c2cc(C)c3cc(NC(=O)c4ccc(OC)c(OC)c4)ccc3n2)CC1", "note": "[MMV019074]", "values": [{"measurement": "Onchocerca lienalis % motility", "setting": "[1]", "result": 100, "unit": "%"}, {"measurement": "inhibition at 100 µM", "setting": "wild type yeast cells; [6]", "result": 0, "unit": "%"}, {"measurement": "inhibition at 100 µM", "setting": "wild type yeast cells; [7]", "result": 0, "unit": "%"}, {"measurement": "inhibition at 5 µM", "setting": "P. falciparum 3D7 or K1", "result": 99, "unit": "%"}, {"measurement": "Mycobacterium marinum growth in Acanthamoeba castellanii DMSO=1 Infection Assay", "setting": "[2]", "result": 0.93}, {"measurement": "gametocyte stage IV-V SYBR Green % inhibition", "setting": "[3]", "result": 47, "unit": "%"}, {"measurement": "Schistosoma mansoni adult worm primary assay % Motility Reduction (Hit ≥ 70%)", "setting": "S. mansoni adult worms", "result": 25, "unit": "%"}, {"measurement": "EC50", "setting": "[4]", "result": 5.46, "unit": "µM"}, {"measurement": "S. mansoni newly transformed schistosomula, visual tox scale, 0 = none, 4=most damaged", "setting": "[5]; 24 h at 2.5µM", "result": 1}, {"measurement": "S. mansoni newly transformed schistosomula, visual tox scale, 0 = none, 4=most damaged", "setting": "[5]; 72 h at 2.5µM", "result": 0}]}, {"smiles": "COc1ccc(C(=O)Nc2ccc3nc(N4CCCCC4)cc(C)c3c2)cc1OC", "note": "[MMV019758]", "values": [{"measurement": "Onchocerca lienalis % motility", "setting": "[1]", "result": 100, "unit": "%"}, {"measurement": "inhibition at 100 µM", "setting": "wild type yeast cells; [6]", "result": 0, "unit": "%"}, {"measurement": "inhibition at 100 µM", "setting": "wild type yeast cells; [7]", "result": 0, "unit": "%"}, {"measurement": "inhibition at 5 µM", "setting": "P. falciparum 3D7 or K1", "result": 76, "unit": "%"}, {"measurement": "Mycobacterium marinum growth in Acanthamoeba castellanii DMSO=1 Infection Assay", "setting": "[2]", "result": 1.23}, {"measurement": "gametocyte stage IV-V SYBR Green % inhibition", "setting": "[3]", "result": 49, "unit": "%"}, {"measurement": "Schistosoma mansoni adult worm primary assay % Motility Reduction (Hit ≥ 70%)", "setting": "S. mansoni adult worms", "result": 50, "unit": "%"}, {"measurement": "EC50", "setting": "[4]", "result": 16.4, "unit": "µM"}, {"measurement": "S. mansoni newly transformed schistosomula, visual tox scale, 0 = none, 4=most damaged", "setting": "[5]; 24 h at 2.5µM", "result": 0}, {"measurement": "S. mansoni newly transformed schistosomula, visual tox scale, 0 = none, 4=most damaged", "setting": "[5]; 72 h at 2.5µM", "result": 0}]}, {"smiles": "COc1cc2cc(C(=O)Nc3ccccc3)c(N)nc2cc1OC", "note": "[MMV006767]", "values": [{"measurement": "Onchocerca lienalis % motility", "setting": "[1]", "result": 100, "unit": "%"}, {"measurement": "inhibition at 100 µM", "setting": "wild type yeast cells; [6]", "result": 0, "unit": "%"}, {"measurement": "inhibition at 100 µM", "setting": "wild type yeast cells; [7]", "result": 0, "unit": "%"}, {"measurement": "inhibition at 5 µM", "setting": "P. falciparum 3D7 or K1", "result": 99, "unit": "%"}, {"measurement": "Mycobacterium marinum growth in Acanthamoeba castellanii DMSO=1 Infection Assay", "setting": "[2]", "result": 1.18}, {"measurement": "gametocyte stage IV-V SYBR Green % inhibition", "setting": "[3]", "result": 60, "unit": "%"}, {"measurement": "Schistosoma mansoni adult worm primary assay % Motility Reduction (Hit ≥ 70%)", "setting": "S. mansoni adult worms", "result": 0, "unit": "%"}, {"measurement": "EC50", "setting": "[4]", "result": "> 32", "unit": "µM"}, {"measurement": "S. mansoni newly transformed schistosomula, visual tox scale, 0 = none, 4=most damaged", "setting": "[5]; 24 h at 2.5µM", "result": 0}, {"measurement": "S. mansoni newly transformed schistosomula, visual tox scale, 0 = none, 4=most damaged", "setting": "[5]; 72 h at 2.5µM", "result": 2}]}, {"smiles": "CCOC(=O)c1cnc2ccc(OC)cc2c1NCc1ccccc1", "note": "[MMV665813]", "values": [{"measurement": "Onchocerca lienalis % motility", "setting": "[1]", "result": 100, "unit": "%"}, {"measurement": "inhibition at 100 µM", "setting": "wild type yeast cells; [6]", "result": 0, "unit": "%"}, {"measurement": "inhibition at 100 µM", "setting": "wild type yeast cells; [7]", "result": 0, "unit": "%"}, {"measurement": "inhibition at 5 µM", "setting": "P. falciparum 3D7 or K1", "result": 97, "unit": "%"}, {"measurement": "Mycobacterium marinum growth in Acanthamoeba castellanii DMSO=1 Infection Assay", "setting": "[2]", "result": 1.26}, {"measurement": "gametocyte stage IV-V SYBR Green % inhibition", "setting": "[3]", "result": 61, "unit": "%"}, {"measurement": "Schistosoma mansoni adult worm primary assay % Motility Reduction (Hit ≥ 70%)", "setting": "S. mansoni adult worms", "result": 0, "unit": "%"}, {"measurement": "EC50", "setting": "[4]", "result": "> 32", "unit": "µM"}, {"measurement": "S. mansoni newly transformed schistosomula, visual tox scale, 0 = none, 4=most damaged", "setting": "[5]; 24 h at 2.5µM", "result": 1}, {"measurement": "S. mansoni newly transformed schistosomula, visual tox scale, 0 = none, 4=most damaged", "setting": "[5]; 72 h at 2.5µM", "result": 1}]}, {"smiles": "CCN(CC)c1cc(C)c2cc(NC(=O)c3cccc(OC)c3)ccc2n1", "note": "[MMV000498]", "values": [{"measurement": "Onchocerca lienalis % motility", "setting": "[1]", "result": 100, "unit": "%"}, {"measurement": "inhibition at 100 µM", "setting": "wild type yeast cells; [6]", "result": 0, "unit": "%"}, {"measurement": "inhibition at 100 µM", "setting": "wild type yeast cells; [7]", "result": 0, "unit": "%"}, {"measurement": "inhibition at 5 µM", "setting": "P. falciparum 3D7 or K1", "result": 97, "unit": "%"}, {"measurement": "Mycobacterium marinum growth in Acanthamoeba castellanii DMSO=1 Infection Assay", "setting": "[2]", "result": 0.94}, {"measurement": "gametocyte stage IV-V SYBR Green % inhibition", "setting": "[3]", "result": 60, "unit": "%"}, {"measurement": "Schistosoma mansoni adult worm primary assay % Motility Reduction (Hit ≥ 70%)", "setting": "S. mansoni adult worms", "result": 0, "unit": "%"}, {"measurement": "EC50", "setting": "[4]", "result": 15.3, "unit": "µM"}, {"measurement": "S. mansoni newly transformed schistosomula, visual tox scale, 0 = none, 4=most damaged", "setting": "[5]; 24 h at 2.5µM", "result": 2}, {"measurement": "S. mansoni newly transformed schistosomula, visual tox scale, 0 = none, 4=most damaged", "setting": "[5]; 72 h at 2.5µM", "result": 0}]}]}
